Source: PMC8972805, “Monomodular Pseudomonas aeruginosa phage JG004 lysozyme (Pae87) contains a bacterial surface-active antimicrobial peptide-like region and a possible substrate-binding subdomain” (Acta Crystallographica. Section D, Structural Biology, 2022)

Target: T1, Pae87 (Pseudomonas phage JG004, UniProt F4YDQ3)
T1 construct: gene PJG4_087; full length, 186 residues, N-terminal 6xHis tag (pET-28a(+), tag kept, up to two tag residues modelled), synthetic gene, expressed in E. coli BL21(DE3); one molecule in asymmetric unit of the complex
T1 sequence (F4YDQ3 entry or part of it): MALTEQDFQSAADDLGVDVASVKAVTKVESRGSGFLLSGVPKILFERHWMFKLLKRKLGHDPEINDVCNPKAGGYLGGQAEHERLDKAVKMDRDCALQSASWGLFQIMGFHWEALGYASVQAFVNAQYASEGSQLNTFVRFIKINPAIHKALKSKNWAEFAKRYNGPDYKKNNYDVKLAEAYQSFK
Assay: X-ray crystal structure of complex, […] Å
Type: binding
Settings: fragment from PAO1 peptidoglycan hydrolysed by Pae87; second site about 18 Å from catalytic site (helices 4, 5 and 7); Tris-HCl pH 8.0, PEG MME 5000

CC(=O)N[C@H]1[C@H](O[C@H]2[C@H](O[C@H](C)C(=O)N[C@@H](C)C(=O)N[C@H](CCC(=O)O)C(=O)O)[C@@H](NC(C)=O)C(O)O[C@@H]2CO)O[C@H](CO)[C@@H](O)[C@@H]1O (stereo partly shown) [peptidoglycan fragment]
X-ray crystal structure of complex, 1.27 Å: the peptidoglycan fragment (comprised of linked NAG, MurNAc, L-alanine
